# Data as given in publication PMC9925730, “Controlled sequential in situ self-assembly and disassembly of a fluorogenic cisplatin prodrug for cancer theranostics” (Nature Communications, 2023).
# Several values for one entry are separate records, joined by “and”; a condition that tells them apart may be missing. Equal entries are not always repeated.
# Experiments:
# ALP = biological target: T1, ALP (Bos taurus, UniProt P19111); assay: Dephosphorylated efficacy of P-CyPt towards varying concentrations of ALP (NIR fluorescence); type: biochemical
# T1 construct: Alkaline phosphatase from bovine; purchased Sigma-Aldrich; host or cells: bovine intestinal mucosa (tissue-derived)
# HeLa MCTS = assay: MCTS imaging and cytotoxicity (penetration, PI staining); type: cell-based, human; conditions: 10 μM 1 h, then 24 h
# Experimental: Supplementary Figure 25. Flow cytometric analysis of HeLa cell death. (a) Gating strategy applied for flow cytometric analysis. (b) Representative flow cytometric analysis of HeLa cells by Annexin V-FITC/PI staining. HeLa cells were treated with PBS, CDDP, PtIVNPs or P-CyPt (20 μM) for 2 h, washed with cold PBS for three times, and then continued incubation in refresh blank DMEM medium for another 48 h. The cells were then stained with the Annexin V-FITC/PI kit, and analyzed by flow cytometry. One representative experiment out of two is shown.
# Supplementary Figure 26. Evaluation of the penetration and cytotoxicity of PtIVNPs toward HeLa MCTS. MCTS were incubated with PtIVNPs (10 μM) for 1 h, then washed with PBS buffer for three times, followed by incubation for another 24 h.
# The MCTs were then co-stained with PI. […]
# μm. […] The fluorescence images of the MCTS were captured on a Leica TCS SP8 confocal laser scanning microscope, microscope (TCS SP8 STED 3X) with 10x/0.4 dry lens (Leica), and captured at RGB on a HyD detector (Leica Dmi8) under PI and Cy5.5 channels. […]
# were sacrificed after 4 h. […] The fluorescence images of these organs and tumors were acquired with the IVIS Lumina XR III imaging system using a 660 nm excitation filter and a 750 ± 50 nm emission filter. […]
# T1 sequence (P19111 20-533): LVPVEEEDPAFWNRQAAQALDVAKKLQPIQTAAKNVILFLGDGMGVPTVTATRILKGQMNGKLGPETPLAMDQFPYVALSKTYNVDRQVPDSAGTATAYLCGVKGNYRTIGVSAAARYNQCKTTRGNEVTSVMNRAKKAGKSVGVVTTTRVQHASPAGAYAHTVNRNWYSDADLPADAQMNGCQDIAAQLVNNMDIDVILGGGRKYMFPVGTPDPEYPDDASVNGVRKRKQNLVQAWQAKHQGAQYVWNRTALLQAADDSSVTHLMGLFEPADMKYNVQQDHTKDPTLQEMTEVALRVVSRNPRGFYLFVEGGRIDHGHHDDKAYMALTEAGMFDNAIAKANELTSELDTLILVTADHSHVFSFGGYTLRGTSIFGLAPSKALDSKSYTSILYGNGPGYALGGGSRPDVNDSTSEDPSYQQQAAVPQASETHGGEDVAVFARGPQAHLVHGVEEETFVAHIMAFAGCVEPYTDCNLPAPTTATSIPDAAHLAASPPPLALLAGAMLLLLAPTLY
smiles,measurement,setting,value
CC1(C)C(/C=C/C2=C3Oc4cc(OP(=O)(O)O)c(Cl)cc4C=C3CCC2)=[N+](CCCNC(=O)[C@@H](Cc2ccccc2)NC(=O)[C@@H](Cc2ccccc2)NC(=O)CCC(=O)[O][Pt]([NH2])([NH2])([OH])([Cl])[Cl])c2ccccc21 [P-CyPt],Normalized FL intensity,"ALP; ALP 5 U/L, 10 min, mean of 3 samples",1.71
same,Normalized FL intensity,"ALP; ALP 5 U/L, 10 min, single samples",1.648 and 1.73 and 1.752
same,Normalized FL intensity,"ALP; ALP 5 U/L, 12 min, mean of 3 samples",1.864
same,Normalized FL intensity,"ALP; ALP 5 U/L, 12 min, single samples",1.757 and 1.865 and 1.97
same,Normalized FL intensity,"ALP; ALP 5 U/L, 14 min, mean of 3 samples",1.881
same,Normalized FL intensity,"ALP; ALP 5 U/L, 14 min, single samples",1.813 and 1.9087 and 1.922
same,Normalized FL intensity,"ALP; ALP 10 U/L, 10 min, mean of 3 samples",2.116
same,Normalized FL intensity,"ALP; ALP 10 U/L, 10 min, single samples",2.078 and 2.183 and 2.087
same,Normalized FL intensity,"ALP; ALP 10 U/L, 12 min, mean of 3 samples",2.286
same,Normalized FL intensity,"ALP; ALP 10 U/L, 12 min, single samples",2.204 and 2.296 and 2.357
same,Normalized FL intensity,"ALP; ALP 10 U/L, 14 min, mean of 3 samples",2.562
same,Normalized FL intensity,"ALP; ALP 10 U/L, 14 min, single samples",2.47 and 2.6 and 2.617
same,Normalized FL intensity,"ALP; ALP 10 U/L, 16 min, mean of 3 samples",2.829
same,Normalized FL intensity,"ALP; ALP 10 U/L, 16 min, single samples",2.713 and 2.865 and 2.9087
same,Normalized FL intensity,"ALP; ALP 20 U/L, 10 min, mean of 3 samples",2.617
same,Normalized FL intensity,"ALP; ALP 20 U/L, 10 min, single samples",2.53 and 2.596 and 2.726
same,Normalized FL intensity,"ALP; ALP 20 U/L, 12 min, mean of 3 samples",2.996
same,Normalized FL intensity,"ALP; ALP 20 U/L, 12 min, single samples",2.926 and 2.987 and 3.074
same,Normalized FL intensity,"ALP; ALP 20 U/L, 14 min, mean of 3 samples",3.404
same,Normalized FL intensity,"ALP; ALP 20 U/L, 14 min, single samples",3.322 and 3.383 and 3.5087
same,Normalized FL intensity,"ALP; ALP 20 U/L, 16 min, mean of 3 samples",3.783
same,Normalized FL intensity,"ALP; ALP 20 U/L, 16 min, single samples",3.7 and 3.73 and 3.917
same,Normalized FL intensity,"ALP; ALP 50 U/L, 10 min, mean of 3 samples",3.187
same,Normalized FL intensity,"ALP; ALP 50 U/L, 10 min, single samples",3.135 and 3.157 and 3.27
same,Normalized FL intensity,"ALP; ALP 50 U/L, 12 min, mean of 3 samples",3.6029
same,Normalized FL intensity,"ALP; ALP 50 U/L, 12 min, single samples",3.483 and 3.583 and 3.743
same,Normalized FL intensity,"ALP; ALP 50 U/L, 14 min, mean of 3 samples",4.096
same,Normalized FL intensity,"ALP; ALP 50 U/L, 14 min, single samples",3.9913 and 4.022 and 4.274
same,Normalized FL intensity,"ALP; ALP 50 U/L, 16 min, mean of 3 samples",4.5913
same,Normalized FL intensity,"ALP; ALP 50 U/L, 16 min, single samples",4.43 and 4.465 and 4.878
same,Normalized FL intensity,"ALP; ALP 100 U/L, 10 min, mean of 3 samples",4.5971
same,Normalized FL intensity,"ALP; ALP 100 U/L, 10 min, single samples",4.522 and 4.557 and 4.713
same,Normalized FL intensity,"ALP; ALP 100 U/L, 12 min, mean of 3 samples",5.171
same,Normalized FL intensity,"ALP; ALP 100 U/L, 12 min, single samples",4.861 and 5.296 and 5.357
same,Normalized FL intensity,"ALP; ALP 100 U/L, 14 min, mean of 3 samples",5.964
same,Normalized FL intensity,"ALP; ALP 100 U/L, 14 min, single samples",5.887 and 5.948 and 6.057
same,Normalized FL intensity,"ALP; ALP 100 U/L, 16 min, mean of 3 samples",6.53
same,Normalized FL intensity,"ALP; ALP 100 U/L, 16 min, single samples",6.426 and 6.513 and 6.652
same,Normalized FL intensity,"ALP; ALP 200 U/L, 10 min, mean of 3 samples",5.588
same,Normalized FL intensity,"ALP; ALP 200 U/L, 10 min, single samples",5.343 and 5.613 and 5.8087
same,Normalized FL intensity,"ALP; ALP 200 U/L, 12 min, mean of 3 samples",6.483
same,Normalized FL intensity,"ALP; ALP 200 U/L, 12 min, single samples",6.217 and 6.557 and 6.674
same,Normalized FL intensity,"ALP; ALP 200 U/L, 14 min, mean of 3 samples",6.862
same,Normalized FL intensity,"ALP; ALP 200 U/L, 14 min, single samples",6.857 and 6.626 and 7.104
same,Normalized FL intensity,"ALP; ALP 500 U/L, 10 min, mean of 3 samples",6.133
same,Normalized FL intensity,"ALP; ALP 500 U/L, 10 min, single samples",5.804 and 6.287 and 6.3087
same,Normalized FL intensity,"ALP; ALP 500 U/L, 12 min, mean of 3 samples",6.81
same,Normalized FL intensity,"ALP; ALP 500 U/L, 12 min, single samples",6.661 and 6.722 and 7.048
same,Normalized FL intensity,"ALP; ALP 500 U/L, 14 min, mean of 3 samples",7.207
same,Normalized FL intensity,"ALP; ALP 500 U/L, 14 min, single samples",6.848 and 7.161 and 7.613
same,penetration / cell-kill depth in MCTS,HeLa MCTS,~ 200 μm
